Tests used:
[1] = tested on: AAV-PTPN11^D61G-expressing mice; assay: Morris water maze (hidden platform, probe trial) in AAV-PTPN11^D61G-expressing mice treated with SL327; assay type: in vivo; conditions: for proximity to the target platform, probe trial: SL327 32 mg/kg intraperitoneal
Procedure: To test whether reducing Erk activity could reverse the memory deficit in AAV-PTPN11^D61G-expressing mice, we treated these mice with the MEK inhibitor SL327 or vehicle daily, 30 min before training.
SL327 (Tocris) was dissolved in DMSO (16 mg/ml) and was injected intraperitoneally once daily, 30 min before the water maze experiment at a dose of 32 mg/kg. The volume of a single injection was under 80 μl. Lovastatin (Mevinolin, Sigma) was prepared as previously described^21. Briefly, lovastatin was dissolved in ethanol (final concentration of 8%) and 1N NaOH was added to convert mevinolin to the sodium salt. The pH of the final solution (4 mg/ml) was adjusted to 7.5 with HCl. The Vehicle solution was prepared with the same procedure. Lovastatin was administered daily (subcutaneous injection, 10 mg/kg) for 3 days before the first training day of the water maze and 6 hr before training every day thereafter.
The coding sequence of human PTPN11 with or without the D61G mutation was subcloned into the HindIII-NsiI site of the AAV expression vector pSOFF. The resultant vector expresses mutant PTPN11 under the synthetic CBA promoter (CMV enhancer and chicken beta-actin promoter). Recombinant virus (rAAV5) was purified as previously described^32. Briefly, an iodixanol gradient purification was performed followed by ion exchange chromatography step which results in a 99% pure vector preparation as judged by silver stained-SDS acrylamide gel fractionation. After the chromatography, the buffer was exchanged and the virus was concentrated in Ringer's solution using a Biomax 100 K concentrator (Millipore). Vector titers were determined by Real Time PCR. Typical titers were 3.09×10^12 genome copies/ml. rAAV5-GFP expressing only GFP was used as a control. […]
In the hidden platform-version of Morris water maze, mice were trained with two blocks of 2 trials (ITI=1 min) spaced about 45 min apart. […] Memory was assessed in probe trials that were given after completion of training as described in the main text. […] Data were acquired and analyzed using WaterMaze software (Actimetrics).

[2] = tested on: hippocampal slices from the AAV-PTPN11^D61G-infected mice; assay: 5 TBS-induced CA1 Schaffer collateral LTP, extracellular field recordings, bath-applied SL327; assay type: cell-based; conditions: SL327 1 μM applied 1 hr before LTP induction and kept in bath
From the text: FIG. 3 are graphs showing that PTPN11^D61G overexpression induces learning and memory and LTP deficits that can be reversed by MEK inhibition. Panel a) AAV5-PTPN11^D61G infection results in overexpression of SHP2^D61G. […] Panel b) PTPN11^D61G overexpression increases basal Erk activity (phospho-Erk level) and prevents further Eric activation in response to TBS. Left, Representative immunoblot showing p-Erk (upper) and total Eric (lower) in PTPN11^D61G-expressing slices and GFP-expressing slices. Slices were prepared 1 hr after TBS. […] Panels c and d) MEK inhibitor SL327 (CAS 305350-87-2) reverses spatial memory deficits in PTPN11^D61G-overexpressing mice. […]
For extracellular recordings of field excitatory postsynaptic potentials (fEPSP), sagittal slices (400 μm) were prepared with a vibratome (VT1000S, Leica) in ice-cold artificial cerebrospinal fluid (ACSF). […] Recording was performed in a submerged chamber perfused with ACSF (32° C.). fEPSPs were recorded with platinum-iridium electrodes placed in the CA1 stratum radiatum. […] Baseline responses were measured with stimulation (0.017 Hz, 0.1 ms pulse duration) at an intensity (typically 20-30 μA) that evoked a response that was approximately one third of the maximum evoked response. […] Initial fEPSP slopes were measured and normalized to the average of baseline (Clampfit 10.2).

SMILES: N#C/C(=C(/N)Sc1ccc(N)cc1)c1ccccc1C(F)(F)F [SL327]
- proximity to the target platform, probe trial ([1]; GFP control group): 43.75±1.45 cm
- proximity to the target platform, probe trial ([1]; PTPN11^D61G group): 45.52±2.14 cm
- time spent in the target quadrant, probe trial ([1]; PTPN11^D61G-expressing mice, SL327 32 mg/kg intraperitoneal daily, 30 min before training): 37.25±3.50%
- Average % fEPSP changes (last 10 minutes of recording), 5 TBS-induced LTP ([2]; GFP slices): 146.2±4.37%
- Average % fEPSP changes (last 10 minutes of recording), 5 TBS-induced LTP ([2]; PTPN11^D61G slices): 146.1±4.36%

— US10835513B2, “Methods and treatments for the learning and memory deficits associated with Noonan syndrome” (The Regents of the University of California, priority 2013, dated 2020)
